US20100087374A1, “Methods for Treatment and Diagnosis of Pulmonary Diseases Based on the Expression of SERCA2 Protein” (priority 2008, published 2010)

Legend:
IL-8 and GM-CSF release = assay: Ozone-mediated cytokine release with extracellular nucleotide supplementation; format: cell-based, human
Experimental: Ozone-mediated cytokine release was studied in polarized air-liquid interface cultures of non-CF and CF cell lines. 16HBEo- and CF4lo- cells were cultured on collagen coated 30 mm inserts. Once cells were polarized (8-10 days in culture) cells were exposed to 0, 100 or 200 ppb ozone with 200 μl media on the apical surface. At the end of exposure (18 h) additional 200 μl media was added to the apical surface. Aliquots were collected after 4 h and analyzed for the cytokine as described before. […] Apical media was collected and analyzed for IL-8 and GM-CSF.

[1] = test system: Primary human bronchial epithelial cells; assay: Ozone-mediated extracellular ATP release with CFTRinh172; format: cell-based; details: 20 μM for 30 min, then 200 ppb ozone 30 min
Experimental: (§1) Exposure of airway epithelial cells to ozone at precise levels was carried out in a computer controlled in vitro exposure chamber as described previously (78). Primary human bronchial epithelial cells cultured on collagen-coated 6-well plates were treated with 20 μM CFTRinh172 for 30 min and then exposed to either 0 ppb (−) or 200 ppb (+) ozone. ATP content of the extracellular media was analyzed after 30 min and cell death was estimated after 8 h of ozone exposure as described in the Methods. The data shown is a representative of 3 experiments (n=6). The bars represent means (SEM) of data and * indicates significant difference (p<0.05) from 0 ppb (− ozone) controls and # indicates significant difference (p<0.05) from 200 ppb exposed cells without CFTRinh172.

[2] = test system: Primary human bronchial epithelial cells; assay: Cell death after ozone exposure with CFTRinh172; format: cell-based; details: 20 μM
Experimental: For assessing ozone toxicity, primary human airway epithelial cells were transfected either with a control or SERCA2 siRNA for 24 h and exposed to 0 ppb or 200 ppb ozone for 18 h. Following exposure, cells were analyzed for cell death using Vybrant apoptosis assay kit (Molecular Probes, Eugene, Oreg.), as described before (63). In this method, apoptotic cells bearing phosphatidylserine in the plasma membrane outer leaflet were identified as those binding Alexa Fluor 488-labeled annexin V and necrotic cells as those binding fluorescent DNA-binding dye SYTOX Green. The Alexa Fluor-488 labeled annexin-positive apoptotic and Sytox green-positive dead cells were quantified by flow cytometry. The columns represent means of data and * indicates significant difference (p<0.05) from 0 ppb controls cells. # indicates significant difference from 200 ppb controls (n=3). This experiment was repeated 4 times.
as §1, with “The data shown is a representative of 3 experiments (n=6). The bars represent means (SEM) of data and * indicates significant difference (p<0.05) from 0 ppb (− ozone) controls and # indicates significant difference (p<0.05) from 200 ppb exposed cells without CFTRinh172.” left out

[3] = test system: primary human bronchial epithelial (HBE), C-38 and IB3-1 cells; assay: Cytotoxicity of 24 h CFTRinh172 incubation; format: cell-based; details: 20 μM
SERCA2 protein = SERCA2 protein expression by Western blot after CFTRinh172 treatment; format: cell-based, human; details: 20 μM, 24 h
IL-8 release [4] = assay: Ozone-mediated IL-8 release with NF-κB inhibitor preincubation; format: cell-based, human; details: CF cells; 10 μM preincubation 30 min; ozone 18 h
Experimental: Ozone-mediated cytokine release was studied in polarized air-liquid interface cultures of non-CF and CF cell lines. 16HBEo- and CF4lo- cells were cultured on collagen coated 30 mm inserts. Once cells were polarized (8-10 days in culture) cells were exposed to 0, 100 or 200 ppb ozone with 200 μl media on the apical surface. At the end of exposure (18 h) additional 200 μl media was added to the apical surface. Aliquots were collected after 4 h and analyzed for the cytokine as described before.
Results are shown in FIG. 18; IL-8 (18A), G-CSF (18B) or GM-CSF (18C). Values are means±SE; n=6, and the figure is a representative of 4 individual experiments; * Significant difference from 0 ppb control, P<0.05 and # Significant difference from non-CF, P<0.05. Effect of preincubation of cells for 30 min with 10 μM [6-amino-4-(4-phenoxyphenylethylamino)quinazoline] For analysis of NF-κB activation, nuclear p65 was measured in non-CF and CF cells after exposure to ozone (E). As described above, cells were harvested and nuclear lysates were prepared after exposure to 200 ppb ozone. The cellular fractions were assessed for p65. Values are means±SE; n=6 and the data is a representative of 2 individual experiments; * Significant difference from 0 ppb control, P<0.05 and # Significant difference from non-CF, P<0.05.

IL-8 release [5] = assay: IL-8 release after thapsigargin preincubation and ozone; format: cell-based, human; details: primary airway epithelial cells
Experimental: Primary airway epithelial cells were cultured on collagen coated 6-well plates. Cells were preincubated with 2 μM thapsigargin for 30 min and then exposed to 200 ppb ozone for 18 h. The supernatant media was collected and analyzed for cytokines as described before. Values are means±SE; n=6 and the data is a representative of 2 individual experiments; * Significant difference from 0 ppb control, P<0.05 and # Significant difference from ozone exposed untreated cells, P<0.05.

[6] = CF45o- cells, 10 μM preincubation 30 min, ozone 200 ppb, 18 h

For `Nc1ncnc2c1ncn2[C@@H]1O[C@H](COP(=O)(O)OP(=O)(O)OP(=O)(O)O)[C@@H](O)[C@H]1O` [ATP], the GM-CSF release (IL-8 and GM-CSF release; [6]) was “enhanced” and the IL-8 release (IL-8 and GM-CSF release; [6]) was “enhanced”.

`O=C(O)c1ccc(/C=C2\SC(=S)N(c3cccc(C(F)(F)F)c3)C2=O)cc1` [CFTRinh172] was tested, and the “Ozone-mediated release of ATP” value [1] was “completely abolished”, the “cytotoxicity of inhibitor itself” value ([2]; 0 ppb ozone) was “negligible cytotoxicity” and the “cell death in ozone” value ([2]; 200 ppb ozone 8 h) was “further enhanced the cell death”. The cytotoxicity [3] was “did not cause cytotoxicity”, the SERCA2 expression (SERCA2 protein; parent CF cell line IB3-1) was “did not cause a further decrease” and the SERCA2 protein levels (SERCA2 protein; primary human bronchial epithelial (HBE) cells, air-liquid interface) was “significant decrease”. The SERCA2 protein levels (SERCA2 protein; wt-CFTR-corrected C-38 cells) was “significant decrease”.

In the case of `Nc1ccc2ncnc(NCCc3ccc(Oc4ccccc4)cc3)c2c1` [NF-kB inhibitor, 6-amino-4-(4-phenoxyphenylethylamino)quinazoline], the “IL-8 levels in ozone” value (IL-8 release [4]) is reported as “drop to control values”.

With `C/C=C(/C)C(=O)O[C@H]1C(C)=C2[C@H]([C@@H]1OC(=O)CCCCCCC)[C@@](C)(OC(C)=O)C[C@H](OC(=O)CCC)[C@@]1(O)[C@H]2OC(=O)[C@@]1(C)O` [Thapsigargin, thapsigargin] the “ozone mediated IL-8 release” value (IL-8 release [5]; 2 μM for 30 min, then 200 ppb ozone 18 h) was “further augmented” and the IL-8 release (IL-8 release [5]; 2 μM, control, 0 ppb exposed cells) was “enhanced”.

In the case of `O=c1ccn([C@@H]2O[C@H](COP(=O)(O)OP(=O)(O)OP(=O)(O)O)[C@@H](O)[C@H]2O)c(=O)[nH]1` [UTP], the ozone-mediated cytokine release (IL-8 and GM-CSF release; CF cells, data not shown) is reported as “enhanced”.
